Laboratory results reported in patent US20060122181A1, “Heteroaromatic pentacyclic compound and medicinal use thereof” (Japan Tobacco Inc., priority 2003, published 2006).

Row | Compound | melting point [°C]
1 | CN(Cc1ccccc1)c1ccc(-c2csc(CN(CC(=O)O)Cc3ccc(Cl)c(Cl)c3)n2)cc1 [Example 3-51] | 69 to 72
2 | CCCC(CCC)c1ccc(COc2ccc(C)cc2-c2csc(CN(C)c3ccc(C(=O)O)cc3)n2)cc1 [Example 3-7] | 184 to 187
3 | CCCC(CCC)c1ccc(OCc2ccc(-c3csc(CN(CC(=O)O)CC(=O)Nc4ccc(OC)cc4)n3)cc2)cc1 [Example 1-98] | 176.5
4 | CC(NCc1nc(-c2ccc(N(C)Cc3ccc(C4CCCCC4)cc3)cc2)cs1)C(=O)O (stereo not shown) [Example 3-78] | 135 to 138
5 | CCCC(CCC)c1ccc(Cn2c(-c3csc(CN4CCN(c5cccc(C(=O)O)c5)CC4)n3)nc3ccccc32)cc1 [Example 1-170] | 179.8 to 181.2
6 | CCCC(CCC)c1ccc(CN(C)c2ccc(-c3csc(CSc4ccc(C(=O)O)cc4)n3)cc2)cc1 [Example 3-96] | 126 to 127
7 | CCCC(CCC)N(Cc1ccc(-c2csc(COc3ccc(C(=O)O)cn3)n2)cc1)c1ccc(C(C)C)cc1 [Example 1-6] | 141 to 143
8 | CCCC(CCC)c1ccc(Cn2cc(-c3csc(CN4CCC(C(=O)O)CC4)n3)c3ccccc32)cc1 [Example 1-165] | 111 to 115
9 | CCCC(CCC)c1ccc(CN(CC)C(=O)c2ccc(-c3csc(CN(CC(=O)O)Cc4ccccc4)n3)cc2)cc1 [Example 1-57] | 59 to 65
10 | CN(Cc1ccc(C2CCC(C)(C)CC2)cc1)c1ccc(-c2csc(CN(C)S(=O)(=O)CC(=O)O)n2)cc1 [Example 3-99] | 184 to 190
11 | CCCC(CCC)c1ccc(COc2ccc(C)cc2-c2csc(CN(C)S(=O)(=O)c3ccc(C(=O)O)cc3)n2)cc1 [Example 3-6] | 130 to 132
12 | CCC(CC)c1ccc2c(c1)nc(-c1csc(COc3ccc(C(=O)O)cc3)n1)n2Cc1ccc(C(C)C)cc1 [Example 3-129] | 139 to 142
13 | CCCC(CCC)c1ccc(N(Cc2ccc(-c3ccc(COc4cncc(C(=O)O)c4)s3)cc2)C(C)C)cc1 [Example 4-18] | 93 to 98
14 | CC(C)CCC1(C(=O)O)CCN(Cc2nc(-c3ccc(N(C)Cc4ccc(C5CCCCC5)cc4)cc3)cs2)CC1 [Example 3-68] | 233 to 235
15 | CCCC(CCC)c1ccc(COc2ccc(Cl)cc2-c2csc(CN(CC(=O)O)Cc3ccccc3)n2)cc1 [Example 3-13] | 130 to 131
16 | CC(C)CN(Cc1ccc(-c2csc(CN(CC(=O)O)C(=O)c3cccnc3)n2)cc1)c1ccc(C(C)(C)C)cc1 [Example 1-30] | 193
17 | Cc1ccc(COc2ccc(-c3csc(CN4CCC(c5cccc(C(=O)O)c5)CC4)n3)cc2)cc1[N+](=O)[O-] [Example 1-184] | 205 to 210
18 | CCC(CC)c1ccc(N(Cc2ccc(-c3csc(CNc4cccc(C(=O)O)c4)n3)cc2)C(C)C)cc1 [Example 1-92] | 159 to 160
19 | CCC(CC)c1ccc(N(Cc2ccc(-c3csc(COc4cccc(C(=O)O)c4)n3)cc2)C(C)C)cc1 [Example 1-91] | 165 to 167
20 | CCCC(CCC)c1ccc(N(Cc2ccc3nc(-c4csc(CN(CC(=O)O)Cc5nc6ccccc6[nH]5)n4)oc3c2)C(C)C)cc1 [Example 1-139] | 127 to 133
21 | CN(Cc1ccc(C2CCC(F)CC2)cc1)c1ccc(-c2csc(CN(CC(=O)O)Cc3ccccc3)n2)cc1 (stereo not shown) [Example 3-33] | 146 to 147
22 | CCCC(CCC)c1ccc2c(c1)nc(-c1csc(COc3ccc(C(=O)O)cc3)n1)n2Cc1cccc(C)n1 [Example 1-159] | 113 to 116
23 | CCCC(CCC)c1ccc(N(C)Cc2ccc(-c3csc(CSc4ccc(C(=O)O)cc4)n3)cc2)cc1 [Example 1-14] | 122 to 124

Row | Compound | melting point [°C]
24 | CCCC(CCC)c1ccc(COc2ccc(-c3csc(CN(CC(=O)O)Cc4ccccn4)n3)cc2)cc1 [Example 3-19] | 155 to 156
25 | CCCC(CCC)c1ccc(OCc2ccc(-c3ccc(CN(CC(=O)O)S(C)(=O)=O)s3)cc2)cc1 [Example 4-49] | 133.1 to 136.5
26 | CC(C)CN(Cc1nc(-c2ccc(N(C)Cc3ccc(C4CCCCC4)cc3)cc2)cs1)S(=O)(=O)CC(=O)O [Example 3-104] | 104 to 110
27 | CCCC(CCC)c1ccc(COc2ccc(-c3csc(COc4ccc(C(=O)O)cc4)n3)cc2)cc1 [Example 3-2] | 204 to 207
28 | CCCC(CCC)c1ccc(OCc2ccc(-c3csc(CN(CCC(C)C)CC(=O)O)c3)cc2)cc1 [Example 4-71] | 176 to 182
29 | CN(Cc1ccc(CC(C)(C)C)cc1)c1ccc(-c2csc(CN3Cc4ccccc4CC3C(=O)O)n2)cc1 (stereo not shown) [Example 3-74] | 175 to 177
30 | CCCC(CCC)c1ccc(OCc2ccc(-c3csc(CN(C)c4cccc(C(=O)O)n4)n3)cc2)cc1 [Example 1-143] | 123 to 125
31 | CCC(CC)N(Cc1ccc(-c2csc(COc3ccc(C(=O)O)cn3)n2)cc1)c1ccc(C(C)C)cc1 [Example 1-11] | 155 to 157
32 | CN(Cc1ccccc1)c1ccc(-c2csc(CN(CC(=O)O)Cc3ccccc3Cl)n2)cc1 [Example 3-50] | 132 to 134
33 | CC(C)CN(Cc1ccc(-c2csc(CN(CC(=O)O)C(=O)N3CCOCC3)n2)cc1)c1ccc(C(C)(C)C)cc1 [Example 1-59] | 138
34 | CCOC(=O)c1ccc(OCc2nc(-c3nc4cc(C(CC)CC)ccc4n3Cc3ccc(C(C)C)cc3)cs2)cc1 [Example 3-128] | 106 to 107
35 | CN(C[C@H]1CC[C@H](c2ccc(C(C)(C)C)cc2)CC1)c1ccc(-c2csc(CN(CC(=O)O)Cc3ccccc3)n2)cc1 [Example 3-28] | 192 to 195
36 | CCC(CC)N(Cc1ccc(-c2csc(COc3cncc(C(=O)O)c3)n2)cc1)c1ccc(C(C)C)cc1 [Example 1-12] | 110 to 114
37 | CCCC(CCC)c1ccc(Cn2c(-c3ccccc3)c(-c3csc(CN4CCC(C(=O)O)CC4)n3)c3ccccc32)cc1 [Example 1-183] | 101 to 103
38 | CCCC(CCC)c1ccc(OCc2ccc(-c3csc(COc4cncc(C(=O)O)c4)c3)cc2)cc1.Cl | 170 to 173
39 | CCC(CC)c1ccc(N(Cc2ccc(-c3csc(CSc4ccc(C(=O)O)cc4)n3)cc2)C(C)C)cc1 [Example 1-13] | 132.5
40 | CN(Cc1ccccc1)c1ccc(-c2csc(CN(CC(=O)O)Cc3cccc4ccccc34)n2)cc1 [Example 3-54] | 78 to 83
41 | CCCC(CCC)c1ccc(OCc2ccc(-c3csc(COc4ncccc4C(=O)O)n3)cc2)cc1 [Example 1-76] | 154.5
42 | CCC(CC)c1ccc(N(Cc2ccc(-c3ccc(CN(CC(=O)O)Cc4nc(C(C)(C)C)cs4)s3)cc2)C(C)C)cc1 [Example 4-19] | 92 to 98
43 | CN(Cc1ccc(C(=O)O)cc1)c1nc(-c2ccc(CNc3ccc(C4CCCCC4)cc3)cc2)cs1 [Example 1-17] | 206 to 210
44 | CCCC(CCC)c1ccc(COc2ccc(-c3csc(CN4CCC(c5ccccc5C(=O)O)CC4)n3)cc2)cc1 [Example 1-164] | 170 to 172
45 | CCCC(CCC)c1ccc(OCc2ccc(-c3ccc(CN(CC(=O)OCC)Cc4nc5ccccc5n4C)s3)cc2)cc1 [Example 4-83] | 82 to 84
46 | CCCC(CCC)c1ccc(N(Cc2ccc(-c3ccc(CN(CC(=O)O)Cc4nc(C(C)(C)C)cs4)s3)cc2)C(C)C)cc1 [Example 4-20] | 78 to 82
